Literature values, collected in patent publication US20100247673A1, “Thyroid protection in sickle cell anemia treatment” (priority 2009, published 2010).

Tested on: erythrocytes
Settings: about 4 mols incorporated per mol of hemoglobin tetramer

In the case of N#C[O-].[K+] [potassium cyanate], the “erythrocytes prevented from sickling” value is given as “up to 80%”.
